# Assay results as given in patent publication EP3033337B1, “SUBSTITUTED IMIDAZOLES AS N-TYPE CALCIUM CHANNEL BLOCKERS” (Janssen Pharmaceutica NV, priority 2013, dated 2015).
# Where two headings read alike, the source gives them in different places.
# Tests used:
# human N-type Ca channel [1] = biological target: T1, human N-type Ca channel (Homo sapiens, UniProt Q00975); test: Calcium influx assay (FDSS), KCl depolarization, Fluo8 dye; type: cell-based; set-up: host or cells: HEK 293; details: HEK 293 cells expressing human N-type Ca channel; 100 mM KCl; read-out: N Type IC50 Data FDSS
# Procedure: All cell culture reagents were procured from HyClone and other reagents were from Fisher. Recombinant HEK 293 cells expressing human N-type Ca channel (Millipore) were maintained in DMEM F12 containing 10% FBS and selection antibiotics at 37 °C in 5% CO2.
# Cells were incubated at 30 °C in 5% CO2 overnight. The medium was removed and cells were loaded with Fluo8 dye (AAT Bioquest) at 37 °C and 30 °C, 30 min each in darkness. Cells were washed four times with wash buffer (16 mM Herep pH 7.2, 2 mM CaCl2, 1 mM MgCl2, 5 mM glucose, 140 mM choline chloride and 2 mM KCl) leaving 15 µL buffer after the last wash. Compounds of Formula (I), serially diluted, were added to the cell plate. The plates were incubated in darkness for 15 min. Cells were depolarized with 100 mM KCl and Ca influx was measured.
# human N-type Ca channel [2] = biological target: T1, human N-type Ca channel; test: Electrophysiological response, QPatch (depolarization -80 mV to +20 mV)
# Procedure: The recombinant cell line described above was used in the measurement of electrophysiological properties with QPatch (Sophion). Cells were maintained in culture as mentioned above. Prior to the experiment, the flasks were moved to 30 °C and incubated for 48-72 hrs. On the day of assaying, cells were detached and harvested. The cell pellet was re-suspended in SMF4HEK (HyClone)/25mM HEPS at 2-5 million/ mL and placed on the QStirrer of the QPatch for 30-60 min prior to the start of the assay. […] Microtiter-Plate/Reference Buffer contained 140 mM TEA-Cl, 10mM BaCl2, 0.8 mM MgCl2, 10 mM HEPES pH ∼7.4 adjusted with TEA-OH/HCl, and ∼300mOsm. Cells were transferred to a QPatch 48 plate and gigaseal was formed. The plate was perfused with intracellular and extracellular buffer. […] In brief, cells were depolarized from resting potential of -80 mV to +20 mV and current was recorded. Data was plotted as percent inhibition vs concentration of the compound and IC50 values were generated using Graphpad Prism non-linear regression analysis.
# [3] = N Type IC50 Data Qpatch Pulse=1, Pulse=1, concentration range 0.01-1 µM
# [4] = N Type IC50 Data Qpatch Pulse=15, Pulse=15, concentration range 0.01-1 µM
# [5] = Pulse=1, concentration range 0.01-0.3 µM
# [6] = Pulse=15, concentration range 0.01-0.3 µM
# [7] = read-out: Qpatch Pulse=1 (percent inhibition)
# [8] = read-out: N Type IC50 Data Qpatch Pulse=15, Pulse=15, concentration range 0.01-1 µM
# [9] = N Type IC50 Data Qpatch Pulse=1, Pulse=1, concentration range 0.3-10 µM
# [10] = N Type IC50 Data Qpatch Pulse=15, Pulse=15, concentration range 0.3-10 µM
# T1 sequence (Q00975 whole entry): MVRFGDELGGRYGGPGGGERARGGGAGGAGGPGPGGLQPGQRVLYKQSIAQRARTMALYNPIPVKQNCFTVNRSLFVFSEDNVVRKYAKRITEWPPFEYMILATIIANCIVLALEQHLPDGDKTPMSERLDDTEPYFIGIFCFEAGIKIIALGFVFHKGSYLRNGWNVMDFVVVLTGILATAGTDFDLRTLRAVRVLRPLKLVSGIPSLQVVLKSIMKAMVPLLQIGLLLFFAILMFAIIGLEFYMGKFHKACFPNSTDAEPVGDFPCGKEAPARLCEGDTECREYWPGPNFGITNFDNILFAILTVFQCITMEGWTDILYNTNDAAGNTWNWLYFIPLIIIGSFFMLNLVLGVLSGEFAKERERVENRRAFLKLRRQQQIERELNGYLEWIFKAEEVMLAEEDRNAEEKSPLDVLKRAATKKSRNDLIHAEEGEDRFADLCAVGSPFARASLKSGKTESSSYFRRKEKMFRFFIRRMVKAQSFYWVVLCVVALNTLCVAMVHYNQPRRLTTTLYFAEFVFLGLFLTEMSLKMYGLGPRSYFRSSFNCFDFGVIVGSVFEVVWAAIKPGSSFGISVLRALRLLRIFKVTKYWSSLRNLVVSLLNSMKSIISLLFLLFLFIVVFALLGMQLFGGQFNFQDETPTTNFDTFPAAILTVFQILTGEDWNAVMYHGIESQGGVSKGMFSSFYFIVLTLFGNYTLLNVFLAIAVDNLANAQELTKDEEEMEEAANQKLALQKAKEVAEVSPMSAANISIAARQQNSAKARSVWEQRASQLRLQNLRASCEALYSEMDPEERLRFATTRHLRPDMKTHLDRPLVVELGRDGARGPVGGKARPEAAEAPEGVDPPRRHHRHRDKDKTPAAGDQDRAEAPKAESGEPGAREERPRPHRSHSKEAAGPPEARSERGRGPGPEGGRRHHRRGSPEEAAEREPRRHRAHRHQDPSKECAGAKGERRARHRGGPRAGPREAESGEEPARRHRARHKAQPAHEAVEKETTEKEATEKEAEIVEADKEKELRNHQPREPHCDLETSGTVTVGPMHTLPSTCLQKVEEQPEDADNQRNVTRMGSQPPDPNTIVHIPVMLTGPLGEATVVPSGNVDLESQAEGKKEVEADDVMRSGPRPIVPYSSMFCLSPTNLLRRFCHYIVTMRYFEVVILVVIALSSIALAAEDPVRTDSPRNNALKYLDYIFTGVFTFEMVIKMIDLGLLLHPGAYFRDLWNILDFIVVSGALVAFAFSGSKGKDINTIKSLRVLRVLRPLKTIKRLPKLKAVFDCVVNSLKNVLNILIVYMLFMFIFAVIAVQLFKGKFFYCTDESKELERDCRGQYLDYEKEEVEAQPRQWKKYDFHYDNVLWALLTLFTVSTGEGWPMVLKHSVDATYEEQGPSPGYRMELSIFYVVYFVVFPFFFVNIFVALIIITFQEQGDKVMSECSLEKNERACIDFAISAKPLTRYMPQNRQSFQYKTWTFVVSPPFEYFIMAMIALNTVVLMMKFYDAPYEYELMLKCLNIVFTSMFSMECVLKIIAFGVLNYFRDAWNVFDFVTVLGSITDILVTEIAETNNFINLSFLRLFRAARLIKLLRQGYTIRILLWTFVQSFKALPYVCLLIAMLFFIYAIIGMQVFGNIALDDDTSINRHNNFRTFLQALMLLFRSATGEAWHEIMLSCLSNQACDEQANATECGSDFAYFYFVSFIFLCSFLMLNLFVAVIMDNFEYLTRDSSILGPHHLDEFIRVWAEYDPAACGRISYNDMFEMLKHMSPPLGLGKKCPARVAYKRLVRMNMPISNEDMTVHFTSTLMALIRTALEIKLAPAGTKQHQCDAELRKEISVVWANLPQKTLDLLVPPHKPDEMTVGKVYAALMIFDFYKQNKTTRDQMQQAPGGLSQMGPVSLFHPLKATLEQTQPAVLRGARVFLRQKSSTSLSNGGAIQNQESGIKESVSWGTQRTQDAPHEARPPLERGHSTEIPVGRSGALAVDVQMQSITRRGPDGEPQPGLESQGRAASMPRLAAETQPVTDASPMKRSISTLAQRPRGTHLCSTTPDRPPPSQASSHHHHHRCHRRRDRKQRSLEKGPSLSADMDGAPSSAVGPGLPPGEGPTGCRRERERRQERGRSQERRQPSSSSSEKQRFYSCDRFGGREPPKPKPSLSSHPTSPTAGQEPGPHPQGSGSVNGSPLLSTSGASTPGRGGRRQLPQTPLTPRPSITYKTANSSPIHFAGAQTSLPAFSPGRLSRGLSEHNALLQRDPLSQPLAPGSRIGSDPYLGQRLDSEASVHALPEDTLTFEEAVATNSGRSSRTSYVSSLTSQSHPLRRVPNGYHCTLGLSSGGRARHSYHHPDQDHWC
# T1 sequence (P54284 whole entry partner): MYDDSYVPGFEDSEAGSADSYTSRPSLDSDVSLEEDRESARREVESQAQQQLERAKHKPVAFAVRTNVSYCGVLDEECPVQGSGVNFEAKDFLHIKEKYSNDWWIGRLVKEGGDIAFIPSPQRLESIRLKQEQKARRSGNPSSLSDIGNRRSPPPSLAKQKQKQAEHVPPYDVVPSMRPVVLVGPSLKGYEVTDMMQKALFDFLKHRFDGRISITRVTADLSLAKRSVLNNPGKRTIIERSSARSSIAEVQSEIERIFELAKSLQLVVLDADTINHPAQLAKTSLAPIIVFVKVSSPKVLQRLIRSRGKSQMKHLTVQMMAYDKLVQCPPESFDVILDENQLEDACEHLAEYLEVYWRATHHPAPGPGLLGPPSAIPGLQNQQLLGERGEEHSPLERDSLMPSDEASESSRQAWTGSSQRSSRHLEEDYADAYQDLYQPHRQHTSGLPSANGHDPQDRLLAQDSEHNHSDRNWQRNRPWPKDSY
# T1 sequence (P54289 25-956 partner limits assumed): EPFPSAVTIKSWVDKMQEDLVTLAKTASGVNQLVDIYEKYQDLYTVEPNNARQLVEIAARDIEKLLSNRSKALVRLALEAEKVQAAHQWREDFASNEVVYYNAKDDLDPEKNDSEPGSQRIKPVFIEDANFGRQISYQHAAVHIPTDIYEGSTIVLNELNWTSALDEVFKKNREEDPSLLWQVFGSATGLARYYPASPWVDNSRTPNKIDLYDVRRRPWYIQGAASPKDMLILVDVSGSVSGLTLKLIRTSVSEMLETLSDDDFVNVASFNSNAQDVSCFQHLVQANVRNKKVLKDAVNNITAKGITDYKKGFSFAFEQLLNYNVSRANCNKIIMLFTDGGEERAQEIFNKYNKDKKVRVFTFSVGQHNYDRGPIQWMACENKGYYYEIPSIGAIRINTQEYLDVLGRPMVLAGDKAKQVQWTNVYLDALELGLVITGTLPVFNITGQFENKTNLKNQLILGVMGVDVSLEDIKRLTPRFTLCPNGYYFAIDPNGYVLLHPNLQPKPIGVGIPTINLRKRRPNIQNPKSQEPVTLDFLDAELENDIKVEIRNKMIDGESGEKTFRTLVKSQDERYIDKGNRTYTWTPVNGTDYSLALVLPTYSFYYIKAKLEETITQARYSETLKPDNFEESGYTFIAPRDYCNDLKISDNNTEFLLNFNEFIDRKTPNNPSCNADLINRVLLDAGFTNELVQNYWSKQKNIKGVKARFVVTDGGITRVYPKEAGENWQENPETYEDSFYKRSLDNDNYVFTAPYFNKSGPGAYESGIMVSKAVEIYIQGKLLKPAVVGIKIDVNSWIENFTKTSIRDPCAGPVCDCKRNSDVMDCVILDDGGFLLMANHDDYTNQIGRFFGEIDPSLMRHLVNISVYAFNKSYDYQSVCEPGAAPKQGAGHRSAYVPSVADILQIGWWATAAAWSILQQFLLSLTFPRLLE
# T1 sequence (P54289 957-1103 partner limits assumed): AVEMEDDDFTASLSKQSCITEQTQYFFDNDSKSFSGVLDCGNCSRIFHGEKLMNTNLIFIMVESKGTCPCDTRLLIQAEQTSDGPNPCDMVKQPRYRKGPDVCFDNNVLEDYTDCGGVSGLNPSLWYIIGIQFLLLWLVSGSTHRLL
SMILES,IC50 (human N-type Ca channel [1]) [µM],IC50 (human N-type Ca channel [2]; [3]) [µM],IC50 (human N-type Ca channel [2]; [8]) [µM],IC50 (human N-type Ca channel [2]; [10]) [µM],further results
"Cn1cnnc1-c1nc(C2CC(C)(C)OC(C)(C)C2)cn1-c1ccc(Cl)cc1 [Compound 26, 3-(1-(4-chlorophenyl)-4-(2,2,6,6-tetramethyltetrahydro-2H-pyran-4-yl)-1H-imidazol-2-yl)-4-methyl-4H-1,2,4-triazole]",5.76,> 1,,,IC50 (human N-type Ca channel [2]; [4]): > 1 µM
"COc1ncccc1-c1nc(C2CC(C)(C)OC(C)(C)C2)cn1Cc1ccccc1Cl [Compound 27, 3-(1-(2-chlorobenzyl)-4-(2,2,6,6-tetramethyltetrahydro-2H-pyran-4-yl)-1H-imidazol-2-yl)-2-methoxypyridine]",6.4,,,,"IC50 (human N-type Ca channel [2]; N Type IC50 Data Qpatch Pulse=15, Pulse=15, concentration range 0.01-0.3 µM): 1.9 µM; N Type IC50 Data Qpatch Pulse=1 (human N-type Ca channel [2]; [5]): poor fit(0.01-0.3 µM)"
"COc1ncccc1-c1nc(C2CC(C)(C)OC(C)(C)C2)cn1Cc1ccc(Cl)cc1 [Compound 28, 3-(1-(4-chlorobenzyl)-4-(2,2,6,6-tetramethyltetrahydro-2H-pyran-4-yl)-1H-imidazol-2-yl)-2-methoxypyridine]",1.64,,,,N Type IC50 Data Qpatch Pulse=1 (human N-type Ca channel [2]; [5]): poor fit(0.01-0.3 µM); N Type IC50 Data Qpatch Pulse=15 (human N-type Ca channel [2]; [6]): poor fit(0.01-0.3 µM)
"COc1ncccc1-c1nc(C2CC(C)(C)OC(C)(C)C2)cn1-c1ccc(C#N)c(C(F)(F)F)c1 [Compound 29, 4-(2-(2-methoxypyridin-3-yl)-4-(2,2,6,6-tetramethyltetrahydro-2H-pyran-4-yl)-1H-imidazol-1-yl)-2-(trifluoromethyl) benzonitrile]",0.492,,,,N Type IC50 Data Qpatch Pulse=1 (human N-type Ca channel [2]; [5]): poor fit(0.01-0.3 µM); N Type IC50 Data Qpatch Pulse=15 (human N-type Ca channel [2]; [6]): poor fit(0.01-0.3 µM)
"COc1ncccc1-c1nc(C2CC(C)(C)OC(C)(C)C2)cn1-c1ccc(F)cc1F [Compound 30, 3-(1-(2,4-difluorophenyl)-4-(2,2,6,6-tetramethyltetrahydro-2H-pyran-4-yl)-1H-imidazol-2-yl)-2-methoxypyridine]",0.321,,,,inhibition at 10 µM (human N-type Ca channel [2]; [7]): 67%; inhibition at 10 µM (human N-type Ca channel [2]; read-out: Qpatch Pulse=15 (percent inhibition)): 35%
"COc1ncccc1-c1nc(C2CC(C)(C)OC(C)(C)C2)cn1-c1cccc(F)c1F [Compound 31, 3-(1-(2,3-difluorophenyl)-4-(2,2,6,6-tetramethyltetrahydro-2H-pyran-4-yl)-1H-imidazol-2-yl)-2-methoxypyridine]",0.769,,,,"IC50 (human N-type Ca channel [2]; N Type IC50 Data Qpatch Pulse=1, Pulse=1, concentration range 0.01-0.3 µM): 1.58 µM; N Type IC50 Data Qpatch Pulse=15 (human N-type Ca channel [2]; [6]): poor fit(0.01-0.3 ,u.M)"
"COc1ccccc1-c1nc(C2CC(C)(C)OC(C)(C)C2)cn1-c1cccc(C#N)c1 [Compound 32, 3-(2-(2-methoxyphenyl)-4-(2,2,6,6-tetramethyltetrahydro-2H-pyran-4-yl)-1H-imidazol-1-yl)benzonitrile]",0.278,> 1,> 1,,
"COc1cnccc1-c1nc(C2CC(C)(C)OC(C)(C)C2)cn1-c1ccc(F)c(F)c1 [Compound 33, 4-(1-(3,4-difluorophenyl)-4-(2,2,6,6-tetramethyltetrahydro-2H-pyran-4-yl)-1H-imidazol-2-yl)-3-methoxypyridine]",0.459,> 1,> 1,,
"COc1cc(-n2cc(C3CC(C)(C)OC(C)(C)C3)nc2-c2ccccc2OC)ccc1C#N [Compound 34, 2-methoxy-4-(2-(2-methoxyphenyl)-4-(2,2,6,6-tetramethyltetrahydro-2H-pyran-4-yl)-1H-imidazol-1-yl)benzonitrile]",1.62,,> 1,,
"COc1ccccc1-c1nc(C2CC(C)(C)OC(C)(C)C2)cn1-c1ccc(C#N)cc1F [Compound 36, 3-fluoro-4-(2-(2-methoxyphenyl)-4-(2,2,6,6-tetramethyltetrahydro-2H-pyran-4-yl)-1H-imidazol-1-yl)benzonitrile]",0.04,0.376,> 1,,
"COc1ccc(-n2cc(C3CC(C)(C)OC(C)(C)C3)nc2-c2ccccc2OC)cc1C#N [Compound 37, 2-methoxy-5-(2-(2-methoxyphenyl)-4-(2,2,6,6-tetramethyltetrahydro-2H-pyran-4-yl)-1H-imidazol-1-yl)benzonitrile]",0.424,,> 1,,"IC50 (human N-type Ca channel [2]; read-out: N Type IC50 Data Qpatch Pulse=1, Pulse=1, concentration range 0.01-1 µM): > 1 µM"
"COc1ccccc1-c1nc(C2CC(C)(C)OC(C)(C)C2)cn1-c1ccc(Cl)cn1 [Compound 39, 5-chloro-2-(2-(2-methoxyphenyl)-4-(2,2,6,6-tetramethyltetrahydro-2H-pyran-4-yl)-1H-imidazol-1-yl)pyridine]",0.163,,,1.9,IC50 (human N-type Ca channel [2]; [9]): 1.7 µM
"COc1ncccc1-c1nc(C2CC(C)(C)OC(C)(C)C2)cn1-c1ccc(F)c(F)c1 [Compound 40, 3-(1-(3,4-difluorophenyl)-4-(2,2,6,6-tetramethyltetrahydro-2H-pyran-4-yl)-1H-imidazol-2-yl)-2-methoxypyridine]",0.822,,,1.94,inhibition at 10 µM (human N-type Ca channel [2]; [7]): 52%
"COc1ccccc1-c1nc(C2CC(C)(C)OC(C)(C)C2)cn1-c1ccc(Cl)c(F)c1 [Compound 41, 1-(4-chloro-3-fluorophenyl)-2-(2-methoxyphenyl)-4-(2,2,6,6-tetramethyltetrahydro-2H-pyran-4-yl)-1H-imidazole]",0.131,,,0.602,inhibition at 10 µM (human N-type Ca channel [2]; [7]): 71%
"COc1ccccc1-c1nc(C2CC(C)(C)OC(C)(C)C2)cn1-c1ccc(F)c(F)c1 [Compound 42, 1-(31,4-difluorophenyl)-2-(2-methoxyphenyl)-4-(2,2,6,6-tetramethyltetrahydro-2H-pyran-4-yl)-1H-imidazole]",0.194,,,1.08,IC50 (human N-type Ca channel [2]; [9]): 2.6 µM
"COc1ncccc1-c1nc(C2CC(C)(C)OC(C)(C)C2)cn1-c1ccc(C#N)cc1 [Compound 43, 4-(2-(2-methoxypyridin-3-yl)-4-(2,2,6,6-tetramethyltetrahydro-2H-pyran-4-yl)-1H-imidazol-1-yl)benzonitrile]",0.291,,,7.5,inhibition at 10 µM (human N-type Ca channel [2]; [7]): 34%
"COc1ncccc1-c1nc(C2CC(C)(C)OC(C)(C)C2)cn1-c1ccc(Cl)c(F)c1 [Compound 44, 3-(1-(4-chloro-3-fluorophenyl)-4-(2,2,6,6-tetramethyltetrahydro-2H-pyran-4-yl)-1H-imidazol-2-yl)-2-methoxypyridine]",0.142,,,3.08,IC50 (human N-type Ca channel [2]; [9]): 2.9 µM
"COc1ccccc1-c1nc(C2CC(C)(C)OC(C)(C)C2)cn1-c1ccc(F)c(Cl)c1 [Compound 45, 1-(3-chloro-4-fluorophenyl)-2-(2-methoxyphenyl)-4-(2,2,6,6-tetramethyltetrahydro-2H-pyran-4-yl)-1H-imidazole]",0.149,,,0.671,IC50 (human N-type Ca channel [2]; [9]): 2.2 µM
"COc1ncccc1-c1nc(C2CC(C)(C)OC(C)(C)C2)cn1-c1ccc(F)c(Cl)c1 [Compound 46, 3-(1-(3-chloro-4-fluorophenyl)-4-(2,2,6,6-tetramethyltetrahydro-2H-pyran-4-yl)-1H-imidazol-2-yl)-2-methoxypyridine]",0.255,,,2.5,
"COc1nccnc1-c1nc(C2CC(C)(C)OC(C)(C)C2)cn1-c1ccc(F)cc1 [Compound 47, 2-(1-(4-fluorophenyl)-4-(2,2,6,6-tetramethyltetrahydro-2H-pyran-4-yl)-1H-imidazol-2-yl)-3-methoxypyrazine]",1.54,> 1,> 1,,
"COc1ncccc1-c1nc(C2CC(C)(C)OC(C)(C)C2)cn1-c1cccc(C#N)c1 [Compound 48, 3-(2-(2-methoxypyridin-3-yl)-4-(2,2,6,6-tetramethyltetrahydro-2H-pyran-4-yl)-1H-imidazol-1-yl)benzonitrile]",5.41,0.222,,,IC50 (human N-type Ca channel [2]; [4]): 0.843 µM
"COc1ncncc1-c1nc(C2CC(C)(C)OC(C)(C)C2)cn1-c1ccc(Cl)cc1 [Compound 49, 5-(1-(4-chlorophenyl)-4-(2,2,6,6-tetramethyltetrahydro-2H-pyran-4-yl)-1H-imidazol-2-yl)-4-methoxypyrimidine]",0.123,> 1,> 1,,
"COc1nccnc1-c1nc(C2CC(C)(C)OC(C)(C)C2)cn1-c1ccc(Cl)cc1 [Compound 50, 2-(1-(4-chlorophenyl)-4-(2,2,6,6-tetramethyltetrahydro-2H-pyran-4-yl)-1H-imidazol-2-yl)-3-methoxypyrazine]",0.215,> 1,,,IC50 (human N-type Ca channel [2]; [4]): 0.971 µM
"CCOc1ncccc1-c1nc(C2CC(C)(C)OC(C)(C)C2)cn1-c1ccc(Cl)cc1 [Compound 51, 3-(1-(4-chlorophenyl)-4-(2,2,6,6-tetramethyltetrahydro-2H-pyran-4-yl)-1H-imidazol-2-yl)-2-ethoxypyridine]",0.029,0.179,,,IC50 (human N-type Ca channel [2]; [4]): 0.701 µM
"CCOc1ncccc1-c1nc(C2CC(C)(C)OC(C)(C)C2)cn1-c1ccc(F)c(F)c1 [Compound 52, 3-(1-(3,4-difluorophenyl)-4-(2,2,6,6-tetramethyltetrahydro-2H-pyran-4-yl)-1H-imidazol-2-yl)-2-ethoxypyridine]",0.115,0.721,> 1,,
